Results taken from publication PMC6976901 (Toxicology Reports, 2020).
Where two headings read alike, the source gives them in different places. Marks after values point to notes of the source that are not given here.

Experiments:
in vitro = conditions: human, Caco-2
liver (hepatotoxicity) = conditions: cited from earlier work
[1] = tested on: human intestinal epithelial Caco-2 cell monolayer; conditions: apical pH 6.0 to basal pH 7.4, mean ± SD of triplicate; for Papp: Table 1 primary set; for observed Papp: Table 2 secondary set
[2] = fraction absorbed, oral; cited from earlier work
[3] = Table 1, Hazard Evaluation Support System Integrated Platform
[4] = Table 2, Hazard Evaluation Support System Integrated Platform

| Molecule | Papp (in vitro) | other results |
| --- | --- | --- |
| Oc1cccc(-c2ccccc2)c1 [3-hydroxybiphenyl] | 28.4 ± 2.2 ×10⁻⁶ cm/s |  |
| O=C1CCC(N2C(=O)c3ccccc3C2=O)C(=O)N1 (stereo not shown) [thalidomide, reference compound] | 23.5 ± 1.9 ×10⁻⁶ cm/s |  |
| CN(C)c1ccccc1 [N,N-dimethylaniline] | 99.9 ± 12.9 ×10⁻⁶ cm/s |  |
| Cc1cc(C)cc(N)c1 [3,5-dimethylaniline] | 67.4 ± 11.3 ×10⁻⁶ cm/s | hepatic NOEL (liver (hepatotoxicity); [3]): 10 mg/kg/day |
| CCNc1ccccc1 [N-ethylaniline] | 66 ± 1 ×10⁻⁶ cm/s | hepatic NOEL (liver (hepatotoxicity); [3]): 5 mg/kg/day |
| CN(C)C [trimethylamine] |  | Papp [1]: 33 ± 1 nm/s |
| COc1ccc2c3c1O[C@H]1[C@@H](O)CC[C@H]4[C@@H](C2)N(C)CC[C@@]341 [dihydrocodeine, reference compound] | 2.4 ± 0.1 ×10⁻⁶ cm/s |  |
| Cc1ccccc1O [o-cresol] | 90.5 ± 6.4 ×10⁻⁶ cm/s |  |
| c1ccc(Nc2ccccc2)cc1 [diphenylamine] | 15.1 ± 1.1 ×10⁻⁶ cm/s |  |
| Oc1ccc(Cc2ccc(O)cc2)cc1 [bisphenol F] |  | hepatic NOEL (liver (hepatotoxicity); [4]): 100 mg/kg/day; observed Papp [1]: 41.5 ± 2.1 ×10⁻⁶ cm/s |
| Cc1ccc(N)cc1C [3,4-dimethylaniline] | 54.1 ± 5.8 ×10⁻⁶ cm/s | hepatic NOEL (liver (hepatotoxicity); [3]): 50 mg/kg/day |
| COc1ccc2[nH]c([S+]([O-])Cc3ncc(C)c(OC)c3C)nc2c1 (stereo not shown) [omeprazole, reference compound] |  | reported human Fa [2]: 95 [7] % |
| COc1cc([N+](=O)[O-])ccc1N [2-methoxy-4-nitroaniline] | 55.2 ± 7 ×10⁻⁶ cm/s | hepatic NOEL (liver (hepatotoxicity); [4]): 100 mg/kg/day |
| CN1CCN2c3ncccc3Cc3ccccc3C2C1 (stereo not shown) [mirtazapine, reference compound] | 4.6 ± 0.3 ×10⁻⁶ cm/s |  |
| CCCCNC(=O)NS(=O)(=O)c1ccc(C)cc1 [tolbutamide, reference compound] | 122 ± 11 ×10⁻⁶ cm/s |  |
| Oc1ccccc1-c1ccccc1 [2-hydroxybiphenyl] | 33.4 ± 2.9 ×10⁻⁶ cm/s |  |
| Oc1ccc(Cl)cc1 [4-chlorophenol] | 43.1 ± 3.7 ×10⁻⁶ cm/s |  |
| COP(=O)(OC)SCn1c(=O)oc2cc(Cl)cnc21 [azamethiphos] | 40.2 ± 1.8 ×10⁻⁶ cm/s |  |
| O=C1NC(=O)c2ccccc21 [phthalimide] | 93.3 ± 6.9 ×10⁻⁶ cm/s |  |
| CC(=O)Nc1ccc(O)cc1 [acetaminophen, reference compound] | 31.9 ± 1.4 ×10⁻⁶ cm/s | hepatic NOEL (liver (hepatotoxicity); Table 2): 250 [11] mg/kg/day; reported human Fa [2]: 100 [23] % |
| CCc1cccc(O)c1 [3-ethylphenol] | 51.5 ± 5 ×10⁻⁶ cm/s | hepatic NOEL (liver (hepatotoxicity); [4]): 300 mg/kg/day |

| Molecule | Papp (in vitro) | other results |
| --- | --- | --- |
| CC(C)(c1ccccc1)c1ccc(O)cc1 [4-α-cumylphenol] | 19.5 ± 3.4 ×10⁻⁶ cm/s | hepatic NOEL (liver (hepatotoxicity); [4]): 100 mg/kg/day |
| CCOc1ccc(N)cc1 [p-phenetidine] |  | hepatic NOEL (liver (hepatotoxicity); [4]): 160 mg/kg/day; observed Papp [1]: 58.2 ± 3.1 ×10⁻⁶ cm/s |
| [H]/N=C(/N)c1ccc(NCc2nc3cc(C(=O)N(CCC(=O)O)c4ccccn4)ccc3n2C)cc1 [dabigatran, reference compound] | 3.8 ± 1.7 ×10⁻⁶ cm/s |  |
| c1ccc2[nH]cnc2c1 [benzimidazole] | 73 ± 0.6 ×10⁻⁶ cm/s |  |
| Nc1ccccc1 [aniline] | 54.4 ± 2.6 ×10⁻⁶ cm/s |  |
| Cc1cc(Cl)ccc1O [4-chloro-o-cresol] | 75.4 ± 3.9 ×10⁻⁶ cm/s | hepatic NOEL (liver (hepatotoxicity); [4]): 250 mg/kg/day |
| CCCCC(CC)COC(=O)c1ccccc1C(=O)O (stereo not shown) [mono(2-ethylhexyl) phthalate] |  | Papp [1]: 467 ± 18 nm/s |
| Cc1ncc2n1-c1ccc(Cl)cc1C(c1ccccc1F)=NC2 [midazolam, reference compound] | 31.8 ± 1.9 ×10⁻⁶ cm/s | reported human Fa [2]: 60 [28] % |
| COc1ccc(C(=O)NCc2ccc(OCCN(C)C)cc2)cc1OC [itopride, reference compound] | 1.2 ± 0.3 ×10⁻⁶ cm/s |  |
| Sc1ncc[nH]1 [2-mercaptoimidazole] | 9.1 ± 0.3 ×10⁻⁶ cm/s |  |
| CC[C@H](C)C(=O)O[C@H]1C[C@@H](C)C=C2C=C[C@H](C)[C@H](CC[C@@H]3C[C@@H](O)CC(=O)O3)[C@H]21 [lovastatin, reference compound] | 2.1 ± 0.1 ×10⁻⁶ cm/s | reported human Fa [2]: 31 [7] % |
| Nc1ccc(C(=O)O)cc1 [p-aminobenzoic acid] | 58.7 ± 4 ×10⁻⁶ cm/s |  |
| CC(=O)CC(c1ccccc1)c1c(O)c2ccccc2oc1=O (stereo not shown) [warfarin, reference compound] | 121 ± 5 ×10⁻⁶ cm/s |  |
| COCCc1ccc(OCC(O)CNC(C)C)cc1 (stereo not shown) [metoprolol, reference compound] | 3.4 ± 0.1 ×10⁻⁶ cm/s |  |
| Nc1ccccc1Cl [2-chloroaniline] | 89.3 ± 2.6 ×10⁻⁶ cm/s |  |
| CNc1ccccc1 [N-methylaniline] | 46.3 ± 5 ×10⁻⁶ cm/s | hepatic NOEL (liver (hepatotoxicity); [3]): 5 mg/kg/day |
| CCc1ccc(O)cc1 [4-ethylphenol] | 43.7 ± 2.3 ×10⁻⁶ cm/s | hepatic NOEL (liver (hepatotoxicity); [4]): 100 mg/kg/day |
| CN(Cc1cnc2nc(N)nc(N)c2n1)c1ccc(C(=O)N[C@@H](CCC(=O)O)C(=O)O)cc1 [methotrexate, reference compound] | 1.1 ± 0.2 ×10⁻⁶ cm/s | reported human Fa [2]: 20 [24] % |
| O=C(O)c1ccccc1 [benzoic acid] | 149 ± 16 ×10⁻⁶ cm/s |  |
| CN(C)CCCOc1nn(Cc2ccccc2)c2ccccc12 [benzydamine, reference compound] | 1.6 ± 0.1 ×10⁻⁶ cm/s |  |
| Oc1nc2ccccc2[nH]1 [2-hydroxybenzimidazole] | 50.7 ± 1.6 ×10⁻⁶ cm/s |  |

| Molecule | Papp (in vitro) | other results |
| --- | --- | --- |
| CC[C@H](C)C(=O)O[C@H]1C[C@H](O)C=C2C=C[C@H](C)[C@H](CC[C@@H](O)C[C@@H](O)CC(=O)O)[C@H]21 [pravastatin, reference compound] | 0.9 ± 0.1 ×10⁻⁶ cm/s | reported human Fa [2]: 13 [31] % |
| CCCCOC(=O)c1ccccc1C(=O)O [monobutyl phthalate] | 31.8 ± 0.8 ×10⁻⁶ cm/s |  |
| Cc1cccc(N)c1C [2,3-dimethylaniline] | 62.4 ± 3 ×10⁻⁶ cm/s | hepatic NOEL (liver (hepatotoxicity); [3]): 12 mg/kg/day |
| Cc1ccc(O)cc1 [p-cresol] | 50.7 ± 4.5 ×10⁻⁶ cm/s |  |
| Nc1ccccc1-c1ccccc1 [2-aminobiphenyl] | 57.6 ± 1.1 ×10⁻⁶ cm/s | hepatic NOEL (liver (hepatotoxicity); [3]): 100 mg/kg/day |
| CC(C)N(CCC(C(N)=O)(c1ccccc1)c1ccccn1)C(C)C (stereo not shown) [disopyramide, reference compound] | 1.4 ± 0.3 ×10⁻⁶ cm/s | reported human Fa [2]: 83 [7] % |
| OCCOCCN1CCN(C2=Nc3ccccc3Sc3ccccc32)CC1 [quetiapine, reference compound] | 3.8 ± 0.4 ×10⁻⁶ cm/s | reported human Fa [2]: 73 [30] % |
| C[C@@H]1C[C@H]2[C@@H]3CCC4=CC(=O)C=C[C@]4(C)[C@@]3(F)[C@@H](O)C[C@]2(C)[C@@]1(O)C(=O)CO [dexamethasone, reference compound] | 9.5 ± 1.4 ×10⁻⁶ cm/s | reported human Fa [2]: 90 [8] % |
| O=C(O)CNC(=O)c1ccccc1 [hippuric acid] | 0.6 ± 0.1 ×10⁻⁶ cm/s |  |
| N#Cc1cccnc1 [3-cyanopyridine] | 56.9 ± 7 ×10⁻⁶ cm/s | hepatic NOEL (liver (hepatotoxicity); [3]): 5 mg/kg/day |
| O=C(O)Cc1ccccc1Nc1c(Cl)cccc1Cl [diclofenac, reference compound] | 75.6 ± 0.6 ×10⁻⁶ cm/s | reported human Fa [2]: 82 [25] % |
| Nc1cccc([N+](=O)[O-])c1 [3-nitroaniline] | 52 ± 5 ×10⁻⁶ cm/s | hepatic NOEL (liver (hepatotoxicity); [3]): 15 mg/kg/day |
| O=C(O)c1ccc(O)cc1 [p-hydroxybenzoic acid] | 60.9 ± 3 ×10⁻⁶ cm/s |  |
| Oc1ccccc1Cl [2-chlorophenol] | 75.2 ± 8.3 ×10⁻⁶ cm/s | hepatic NOEL (liver (hepatotoxicity); [4]): 200 mg/kg/day |
| Nc1cccc2c1C(=O)N(C1CCC(=O)NC1=O)C2=O (stereo not shown) [pomalidomide, reference compound] | 46.6 ± 5.7 ×10⁻⁶ cm/s | reported human Fa [2]: 73 [29] % |
| CCC(C)c1ccc(O)cc1 (stereo not shown) [4-sec-butylphenol] | 40.2 ± 1.9 ×10⁻⁶ cm/s |  |
| lucifer yellow [reference compound] |  | Papp [1]: 7 ± 1 nm/s; reported human Fa [2]: 0 [27] % |
| Sc1nc2ccccc2[nH]1 [2-mercaptobenzimidazole] | 67.3 ± 1.8 ×10⁻⁶ cm/s | hepatic NOEL (liver (hepatotoxicity); [3]): 2 mg/kg/day |
| CN1CCC[C@H]1c1cccnc1 [nicotine, reference compound] | 5.7 ± 0.6 ×10⁻⁶ cm/s | reported human Fa [2]: 100 [8] % |
| CC(C)NCC(O)COc1cccc2ccccc12 (stereo not shown) [propranolol, reference compound] | 2.9 ± 0.3 ×10⁻⁶ cm/s |  |
| Cc1cc(N)c(S(=O)(=O)O)cc1Cl [5-amino-2-chlorotoluene-4-sulfonic acid] | 2 ± 0.2 ×10⁻⁶ cm/s | hepatic NOEL (liver (hepatotoxicity); [3]): 1000 mg/kg/day |

| Molecule | Papp (in vitro) | other results |
| --- | --- | --- |
| Nc1cccc(O)c1 [3-aminophenol] | 51.3 ± 2.3 ×10⁻⁶ cm/s |  |
| CC(=O)[C@H]1CC[C@H]2[C@@H]3CCC4=CC(=O)CC[C@]4(C)[C@H]3CC[C@]12C [progesterone, reference compound] | 11.3 ± 2 ×10⁻⁶ cm/s |  |
| CN/C(=N/CCSCc1nc[nH]c1C)NC#N [cimetidine, reference compound] | 1.7 ± 0.2 ×10⁻⁶ cm/s | reported human Fa [2]: 68 [7] % |
| N#Cc1ccc(C#N)cc1 [terephthalonitrile] | 57.3 ± 1.3 ×10⁻⁶ cm/s | hepatic NOEL (liver (hepatotoxicity); [3]): 20 mg/kg/day |
| Cc1cccc(O)c1 [m-cresol] | 85.1 ± 3.5 ×10⁻⁶ cm/s | hepatic NOEL (liver (hepatotoxicity); [3]): 100 mg/kg/day |
| N#Cc1cccc(C#N)c1 [isophthalonitrile] |  | hepatic NOEL (liver (hepatotoxicity); [3]): 8 mg/kg/day; Papp [1]: 805 ± 8 ^a nm/s |
| CNCC[C@@H](Oc1ccccc1C)c1ccccc1 [atomoxetine, reference compound] | 2.7 ± 0.1 ×10⁻⁶ cm/s | reported human Fa [2]: 100 [8] % |
| Oc1ccc(-c2ccccc2)cc1 [4-hydroxybiphenyl] | 44.1 ± 2.8 ×10⁻⁶ cm/s |  |
| CC(C)(c1ccc(O)cc1)c1ccc(O)cc1 [bisphenol A] | 32.1 ± 1.3 ×10⁻⁶ cm/s | hepatic NOEL (liver (hepatotoxicity); [3]): 200 mg/kg/day |
| Cc1cccc(Nc2ccccc2C(=O)O)c1C [mefenamic acid, reference compound] | 180 ± 8.3 ×10⁻⁶ cm/s |  |
| O=c1ccc2ccc(O)cc2o1 [7-hydroxycoumarin] | 103 ± 17 ×10⁻⁶ cm/s |  |
| Cc1ccc(N)c(C)c1 [2,4-dimethylaniline] | 66.1 ± 2 ×10⁻⁶ cm/s | hepatic NOEL (liver (hepatotoxicity); [3]): 2 mg/kg/day |
| Cc1cc2c(s1)Nc1ccccc1N=C2N1CCN(C)CC1 [olanzapine, reference compound] | 3.5 ± 0.3 ×10⁻⁶ cm/s |  |
| CCOc1ccc2ccc(=O)oc2c1 [7-ethoxycoumarin] | 75 ± 4.8 ×10⁻⁶ cm/s |  |
| CN1C(=O)CC[C@H]1c1cccnc1 [cotinine] | 41.2 ± 2.9 ×10⁻⁶ cm/s | reported human Fa [2]: 90 [8] % |
| Nc1cccc(S(=O)(=O)O)c1 [3-aminobenzenesulfonic acid] | 2.1 ± 0.3 ×10⁻⁶ cm/s |  |
| Nc1cccc2c1CN(C1CCC(=O)NC1=O)C2=O (stereo not shown) [lenalidomide, reference compound] | 0.7 ± 0.1 ×10⁻⁶ cm/s | reported human Fa [2]: 90 [26] % |
| CC(C)NCC(O)COc1ccc(CC(N)=O)cc1 (stereo not shown) [atenolol] |  | reported human Fa [2]: 50 [7] % |
